This note sets out measurements from patent publication US20140066365A1, “USE OF CALIXARENES ASSOCIATED WITH AN ANTIBIOTIC IN THE TREATMENT OF BACTERIAL INFECTIONS” (priority 2011, published 2014).

Format in all cases: cell-based
Experiment [1] has as its system PaR5: Pseudomonas aeruginosa. Briefly: Antibiogram by the disk diffusion technique. To be noted: for Diameter / Results / CA-SFM Interpretation / CLSI Interpretation / EUCAST Interpretation: PaR5; for Diameter / Results: Table I1; for Results: against Dmin-Dmax; for diameter in mm: disk diffusion inhibition diameter, strain PaR5; for CA-SFM Interpretation / CLSI Interpretation / EUCAST Interpretation: disk diffusion; for CA-SFM Interpretation: versus critical diameter CA-SFM 2011; for CLSI Interpretation: versus critical diameter CLSI 2011; for EUCAST Interpretation: versus critical diameter EUCAST 2011, for ** antibiotics the disk load differs and the EUCAST interpretation is not applicable. As for the experimental part: (§1) The bacterial and antibiogramidentification is carried out by the VITEK 2 system (bioMérieux) and by the disk diffusion technique
(Agar diffusion results depend on both activity and mobility in agar.)

Experiment [2] has as its system EcR1: Penicillinase-Producing Escherichia coli without Associated Resistance. Briefly: Antibiogram by the disk diffusion technique. Conditions: Table A1; for Diameter: EcR1, disk diffusion; for Results: EcR1, interpretation of the diameter against Dmin Dmax. As for the experimental part: (§2) 5.1 EcR1: Penicillinase-Producing Escherichia coli without Associated Resistance The bacterial and antibiogramidentification is carried out by the VITEK 2 system (bioMérieux) and by the disk diffusion technique.

Experiment [3] shares this test system. Briefly: Antibiogram, MIC by the VITEK 2 system. To be noted: for CA-SFM Interpretation: EcR1, MIC against Cc CA-SFM 2011; for CLSI Interpretation: EcR1, MIC against Cc CLSI 2011; for EUCAST Interpretation: EcR1, MIC against Cc EUCAST 2011; for Results: EcR1, interpretation of the MIC, Table A1; for MIC: Escherichia coli. On the procedure:
as §2

The subject of experiment [4] is EcR3: ESBL-Producing Escherichia coli. The experiment in a line: Antibiogram by the disk diffusion technique. Conditions: for CA-SFM Interpretation: Cd CA-SFM 2011; for CLSI Interpretation: Cd CLSI 2011; for EUCAST Interpretation: Cd EUCAST 2011; for Diameter: Table C1; for Results: Table C1, against Dmin Dmax; for diameter in mm: Table C2. As for the experimental part:
The bacterial and antibiogramidentification is carried out by the VITEK 2 system (bioMerieux) and by the disk diffusion technique

Experiment [5] relates to EcR2: Cephalosporinase-Hyperproducing Strain of Escherichia coli. The experiment in a line: Antibiogram, MIC by the VITEK 1 system. Conditions: for CA-SFM Interpretation / CLSI Interpretation / EUCAST Interpretation: from MIC; for CA-SFM Interpretation: Cc CA-SFM 2011; for CLSI Interpretation: Cc CLSI 2011; for EUCAST Interpretation: Cc EUCAST 2011; for MIC: Escherichia coli, read-out: MIC. As for the experimental part:
(§3) The bacterial and antibiogramidentification is carried out by the VITEK 1 system (bioMérieux) and by the disk diffusion technique

Experiment [6] deals with PaR3: Pseudomonas aeruginosa. Briefly: Antibiogram, MIC by the VITEK 2 system. On the procedure: (§4) The bacterial and antibiogramidentification is carried out by the VITEK 2 system (bioMérieux)
Experiment [7] deals with PaR2: Pseudomonas aeruginosa. Conditions: for CA-SFM Interpretation: Cd CA-SFM 2011; for CLSI Interpretation: Cd CLSI 2011; for EUCAST Interpretation: Cd EUCAST 2011; for Diameter: Table G1; for Results: Table G1, against Dmin-Dmax; for diameter in mm: Table G2. On the procedure: as §1
Experiment [8] concerns SaR3: Meticillin-Resistant Staphylococcus aureus. Briefly: Antibiogram by the disk diffusion technique. To be noted: for Diameter: Table E1; for Results: Table E1, against Dmin Dmax; for CA-SFM Interpretation: Cd CA-SFM 2011; for CLSI Interpretation: Cd CLSI 2011; for diameter in mm: Table E2. As for the experimental part: as §1
Experiment [9] deals with SaR4: Meticillin-Resistant Staphylococcus aureus. Briefly: Antibiogram, MIC by the VITEK 2 system. Conditions: SaR4; for CA-SFM Interpretation: Cc CA-SFM 2011. As for the experimental part:
as §1

Experiment [10] has as its system SaR1: Meticillin-Resistant Staphylococcus aureus without Associated Resistance. Briefly: Antibiogram, inhibition diameter (Table D1). Conditions: for Results: from diameter, against Dmin Dmax. As for the experimental part:
as §4

The test system is the same in experiment [11]. The experiment in a line: Antibiogram, MIC by the VITEK 2 system. Conditions: SaR1; for CA-SFM Interpretation: Cc CA-SFM 2011; for Results: from MIC. As for the experimental part: as §4
The test system of experiment [12] is EcR2: Cephalosporinase-Hyperproducing Strain of Escherichia coli. Briefly: Antibiogram by the disk diffusion technique. Conditions: for Results: EcR2, rows that print a diameter. On the procedure: as §3
Setting [13] is: EcR1, Table A2, read-out: MIC mg/L (diameter in mm).
Where [14] appears, read: EcR1, VITEK 2, Table A1, read-out: MIC.
Where [15] appears, read: Staphylococcus aureus, Table F1, read-out: MIC.

Values after ≈ are worked out from the molar mass of the structure shown. Like-named read-outs stand apart in the source and are kept apart here.

Regarding `CC1(C)S[C@@H]2[C@H](NC(=O)[C@H](C(=O)O)c3ccsc3)C(=O)N2[C@H]1C(=O)O` [Ticarcillin], the Diameter in [1] is 32 mm; in experiment [2], 6 mm; in [4] it was 6 mm; in [7] it was 10 mm. Further, the Results result is “Susceptible” in experiment [1]; “Resistant” in [2]; “Resistant” in experiment [3]; “Resistant” in experiment [4]; “Intermediate” in [5] (EcR2, Table B1); “Resistant” in experiment [6] (Table H1). In addition, the Results entry in experiment [7] is “Resistant”. The diameter in mm in [1] was found to be 32 mm; in experiment [4], 6 mm; in experiment [7], 10 mm. The “CA-SFM Interpretation” value in experiment [1] is recorded as “Susceptible”; in experiment [3], “Resistant”; in experiment [4], “Resistant”; in [5] (EcR2) it was “Resistant”; in [6] (Cc CA-SFM 2011), “Resistant”; in experiment [7] it was “Resistant”. The “CLSI Interpretation” value in experiment [1] was “Susceptible”; in experiment [3] it was “Resistant”; in experiment [4], “Resistant”; in [5] (EcR2), “Resistant”; in experiment [6] (Cc CLSI 2011), “Resistant”; in experiment [7] it was “Resistant”. Also, the “EUCAST Interpretation” value in [1] is recorded as “Susceptible”; in experiment [3] it was “Resistant”; in experiment [4], “Resistant”; in [5] (EcR2), “Resistant”; in [6] (Cc EUCAST 2011), “Resistant”; in experiment [7], “Resistant”. The MIC is at least 128 mg/L in experiment [3] (setting [13]); at least 128 mg/L in [3] (setting [14]); 32 µg/mL (≈ 83.2 µM) in [5] (EcR2, VITEK 1, Table B1); 32 µg/mL (≈ 83.2 µM) in experiment [5] (EcR2, Table B2, MIC); at least 128 µg/mL in [6] (Pseudomonas aeruginosa, Table H2, read-out: MIC); “≧128” in experiment [6] (Table H1).
Consider `O=C(N[C@H](CO)[C@H](O)c1ccc([N+](=O)[O-])cc1)C(Cl)Cl` [Chloramphenicol], for which the figures for the Diameter in experiment [8] and in experiment [10] were 6 mm and 25 mm, respectively. Besides, the Results result in experiment [8] is recorded as “Resistant”; in experiment [9] (Table F1, MIC), “Susceptible”; in experiment [10], “Susceptible”. The MIC in experiment [9] (setting [15]) was 8 µg/mL (≈ 24.8 µM).
As to Teicoplanin, the “CA-SFM Interpretation” value in [8], in experiment [9] (from MIC) and in experiment [11] was “Susceptible” each time. Further, the “CLSI Interpretation” value in experiment [8] is recorded as “Susceptible”; in experiment [9] (from MIC, Cc CLSI 2011), “Susceptible”; in experiment [11] (Cc CLSI 2011), “Susceptible”. Also, the Results result in experiment [8] is “Susceptible”; in [9] (Table F1, MIC), “Susceptible”; in experiment [10], “Susceptible”; in [11] (Table D1) it was “Susceptible”. In experiment [8], the diameter in mm is recorded as 27 mm. The results for the “MIC mg/L” value in experiment [9] (Table F1), in [11] (Table D1) and in experiment [11] (Table D2) were “≦4 mg/L”, “≦0.5 mg/L” and “≦0.5 mg/L”, respectively. Further, the MIC result in experiment [9] (Table F2, MIC) was “≦4 mg/L”. The “EUCAST Interpretation” value in experiment [9] (from MIC, Cc EUCAST 2011) is on record as “Susceptible”; in experiment [11] (Cc EUCAST 2011), “Susceptible”.
As for `CO[C@@]1(NC(=O)Cc2cccs2)C(=O)N2C(C(=O)O)=C(COC(N)=O)CS[C@@H]21` [Cefoxitin], the “CA-SFM Interpretation” value in [8] is listed as “Resistant”; in experiment [12] (EcR2, from diameter, CA-SFM 2011), “Resistant”; in experiment [3] it was “Susceptible”; in [4] it was “Resistant”. Also, the “CLSI Interpretation” value was “Resistant” in experiment [8]; “Resistant” in [12] (EcR2, from diameter, CLSI 2011); “Susceptible” in experiment [3]; “Resistant” in experiment [4]. For the same compound, the “EUCAST Interpretation” value is listed as “Resistant” in experiment [8] (Cd EUCAST 2011); “Resistant” in [12] (EcR2, from diameter, EUCAST 2011); “Resistant” in experiment [4]. For the same compound, the figures for the diameter in mm in experiment [8] and in experiment [4] were 17 mm and 6 mm, respectively. For the same compound, the Diameter in experiment [2] was 24 mm; in experiment [12] (EcR2, disk diffusion, Table B1) it was 11; in experiment [12] (EcR2, Table B2, diameters), 11 mm. For the same compound, the Results entry in experiment [2] is “Susceptible”; in [12] (Table B1), “Resistant”; in experiment [3], “Susceptible”; in experiment [4], “Intermediate”. Further, the MIC in experiment [3] (setting [13]) and in [3] (setting [14]) was at most 4 mg/L each time.
With `CCC[C@@H]1C[C@@H](C(=O)N[C@@H]([C@H]2O[C@H](SC)[C@H](O)[C@@H](O)[C@H]2O)[C@@H](C)O)N(C)C1` [Lincomycin], the “CA-SFM Interpretation” value in [8] is given as “Susceptible”; in experiment [9] (from MIC), “Resistant”; in [11], “Susceptible”. The Diameter was 23 mm in [8] and 24 mm in [10]. The Results result in experiment [8] is reported as “Susceptible”; in [9] (Table F1, MIC) it was “Resistant”; in [10], “Susceptible”; in [11] (Table D1), “Susceptible”. This compound returned a diameter in mm in [8] of 23 mm. The MIC in experiment [9] (setting [15]) was at least 16 µg/mL; in [9] (Staphylococcus aureus, Table F2, MIC, read-out: MIC) it was at least 16 µg/mL; in [11] (Staphylococcus aureus, Table D1, read-out: MIC) it was at most 1 µg/mL. In [11] (Table D2), the “MIC mg/L” value is on record as “≦1 mg/L”.
For `CCN[C@@H]1C[C@H](N)[C@@H](O[C@H]2OC(CN)=CC[C@H]2N)[C@H](O)[C@H]1O[C@H]1OC[C@](C)(O)[C@H](NC)[C@H]1O` [Netilmicin], the Diameter in [1] was found to be 28 mm; in experiment [2], 24 mm; in experiment [12] (EcR2, disk diffusion, Table B1), 21; in [4] it was 10 mm; in experiment [7], 19 mm. Besides, the Results entry in experiment [1] is listed as “Susceptible”; in [2], “Susceptible”; in experiment [12] (Table B1), “Susceptible”; in [3], “Susceptible”; in experiment [4], “Resistant”; in experiment [7] it was “Susceptible”. Also, the diameter in mm came out at 28 mm in [1], 10 mm in [4] and 19 mm in [7]. The “CA-SFM Interpretation” value in experiment [1] is recorded as “Susceptible”; in experiment [3] it was “Susceptible”; in experiment [4] it was “Resistant”; in experiment [5] (EcR2), “Susceptible”; in experiment [7], “Susceptible”. Moreover, the “CLSI Interpretation” value in experiment [1] is recorded as “Susceptible”; in experiment [3], “Susceptible”; in experiment [4], “Resistant”; in experiment [5] (EcR2), “Susceptible”; in experiment [7], “Susceptible”. Besides, the “EUCAST Interpretation” value in [1] was “Susceptible”; in [3], “Susceptible”; in [4] it was “Resistant”; in [5] (EcR2) it was “Susceptible”; in [7] it was “Susceptible”. The MIC is at most 1 mg/L in experiment [3] (setting [13]); at most 1 mg/L in experiment [3] (setting [14]); at most 1 µg/mL in experiment [5] (EcR2, VITEK 1, Table B1); at most 1 µg/mL in [5] (EcR2, Table B2, MIC).
